Tested on: diarrhea-predominant IBS subjects
Assay: 3007 Study: open-label 52-week safety study, adverse events and withdrawals
Details: P/C group

Cc1nccn1C[C@H]1CCc2c(c3cccc4c3n2CCC4)C1=O [cilansetron, (R)-(−)-4,5,6,8,9,10-hexahydro-10-[(2-methyl-1H-imidazol-1-yl)methyl]-11H-pyrido-[3,2,1-jk]-carbazol-11-one]
TEAE: Anaemias NEC: 1 (<1%) n (%) | TEAE: Angina Pectoris: 0 n (%) | TEAE: Anorexia: 1 (<1%) n (%) | TEAE: Anxiety: 5 (2%) n (%) | TEAE: Anxiety Aggravated: 1 (<1%) n (%) | TEAE: Anxiety Symptoms: 7 (3%) n (%) | TEAE: Apocrine and Eccrine Gland Disorders: 3 (1%) n (%) | TEAE: Appetite Disorders: 1 (<1%) n (%) | TEAE: Arrhythmia NOS: 0 n (%) | TEAE: Asthenic Conditions: 7 (3%) n (%) | TEAE: Asthma Aggravated: 0 n (%) | TEAE: Asthma NOS: 1 (<1%) n (%) | TEAE: Atopic Disorders: 1 (<1%) n (%) | TEAE: Atrial Fibrillation: 0 n (%) | TEAE: Atrioventricular Block First Degree: 0 n (%) | TEAE: Basal Cell Carcinoma: 4 (1%) n (%) | TEAE: Behaviour and Socialisation Disturbances: 1 (<1%) n (%) | TEAE: Benign Ovarian Tumour*: 1 (<1%) n (%) | TEAE: Biliary Tract Disorder NOS: 1 (<1%) n (%) | TEAE: Binocular Eye Movement Disorder NOS: 1 (<1%) n (%) | TEAE: Bladder Disorders NEC: 1 (<1%) n (%) | TEAE: Bladder Infections and Inflammations: 1 (<1%) n (%) | TEAE: Bladder Prolapse: 1 (<1%) n (%) | TEAE: Bladder and Urethral Symptoms: 1 (<1%) n (%) | TEAE: Blood and Lymphatic System Disorders: 2 (<1%) n (%) | TEAE: Bone Neoplasm Malignant: 0 n (%) | TEAE: Bone Neoplasms Malignant (Excl Sarcomas): 0 n (%) | TEAE: Bradyarrhythmia: 1 (<1%) n (%) | TEAE: Breast Calcifications*: 1 (<1%) n (%) | TEAE: Breast Cancer NOS*: 2 (1%) n (%) | TEAE: Breast Disorder NOS*: 1 (<1%) n (%) | TEAE: Breast Disorders NEC*: 4 (2%) n (%) | TEAE: Breast Mass NOS*: 2 (1%) n (%) | TEAE: Breast and Nipple Neoplasms Malignant*: 2 (1%) n (%) | TEAE: Breath Sounds Decreased: 0 n (%) | TEAE: Breathing Abnormalities: 1 (<1%) n (%) | TEAE: Bronchospasm and Obstruction: 1 (<1%) n (%) | TEAE: Bruising, Ecchymosis and Purpura: 0 n (%) | TEAE: Bundle Branch Block Right: 0 n (%) | TEAE: Calculus Renal NOS: 0 n (%) | TEAE: Calculus Ureteric: 0 n (%) | TEAE: Cardiac Conduction Disorders: 0 n (%) | TEAE: Cardiac Disorders: 6 (2%) n (%) | TEAE: Cardiac Fibrillation NOS: 1 (<1%) n (%) | TEAE: Cardiac Flutter: 1 (<1%) n (%) | TEAE: Cardiac Signs and Symptoms NEC: 2 (<1%) n (%) | TEAE: Cataract Unilateral: 0 n (%) | TEAE: Cataracts (Excl Congenital): 1 (<1%) n (%) | TEAE: Cerumen Impaction: 0 n (%) | TEAE: Chest Discomfort: 1 (<1%) n (%) | TEAE: Chest Pain: 4 (1%) n (%) | TEAE: Chest Tightness: 0 n (%) | TEAE: Cholecystitis and Cholelithiasis: 0 n (%) | TEAE: Cholelithiasis: 0 n (%) | TEAE: Congenital, Familial and Genetic Disorders: 1 (<1%) n (%) | TEAE: Conjunctival Infections, Irritations and Inflammations: 0 n (%) | TEAE: Conjunctivitis: 0 n (%) | TEAE: Conjunctivitis Allergic: 0 n (%) | TEAE: Contusion: 2 (<1%) n (%) | TEAE: Cough: 6 (2%) n (%) | TEAE: Coughing and Associated Symptoms: 6 (2%) n (%) | TEAE: Cyst NOS: 0 n (%) | TEAE: Cystitis Interstitial: 1 (<1%) n (%) | TEAE: Dacryostenosis Acquired: 0 n (%) | TEAE: Deafness NOS: 0 n (%) | TEAE: Dehydration: 1 (<1%) n (%) | TEAE: Depression: 5 (2%) n (%) | TEAE: Depression Aggravated: 1 (<1%) n (%) | TEAE: Depressive Disorders: 6 (2%) n (%) | TEAE: Dermal and Epidermal Conditions NEC: 4 (1%) n (%) | TEAE: Dermatitis Allergic: 1 (<1%) n (%) | TEAE: Dermatitis Ascribed to Specific Agent: 1 (<1%) n (%) | TEAE: Dermatitis Contact: 1 (<1%) n (%) | TEAE: Dermatitis Medicamentosa: 1 (<1%) n (%) | TEAE: Dermatitis NOS: 1 (<1%) n (%) | TEAE: Dermatitis and Eczema: 4 (1%) n (%) | TEAE: Dermographism: 1 (<1%) n (%) | TEAE: Diabetes Mellitus (Incl Subtypes): 1 (<1%) n (%) | TEAE: Diabetes Mellitus Aggravated: 1 (<1%) n (%) | TEAE: Diabetes Mellitus Non-Insulin-Dependent: 0 n (%) | TEAE: Disturbances in Initiating and Maintaining Sleep: 0 n (%) | TEAE: Drug Hypersensitivity: 0 n (%) | TEAE: Dry Eye NOS: 0 n (%) | TEAE: Dysfunctional Uterine Bleeding*: 0 n (%) | TEAE: Dyshidrosis: 1 (<1%) n (%)
